Measured values: US20250154121A1, “CYCLIC(ALKYL)(AMINO)ALKOXY-SUBSTITUTED ARYL-PYRONE COMPOUND AND USE THEREOF” (priority 2022, published 2025)
Where “and” joins values, the source holds several entries; their conditions need not be identical. Equal entries are not always repeated. Where two headings read alike, the source gives them in different places.

Key:
[1] = test system: Influenza A (H1N1) virus FM1 strain; test: Mouse pneumonia model infected with influenza A (H1N1) virus FM1 strain (lung index); format: in vivo, ICR mice
Protocol: ICR mice were taken and randomly divided into: normal control group, model control group, ribavirin control group, compound 4, compound F1, compound F2, and compound F3 according to their weight class, and each drug was given in two dosage groups (10 mice in each group). Except for the normal control group, mice were slightly anesthetized with ether and infected with 15 LD50 H1N1 influenza virus liquid FM1 strain by nasal drops (30 μl per animal). The administration was started on the day of infection at 0.2 ml/10 g by gavage each time once a day for 4 days, and the normal control and model control groups were gavaged with distilled water under the same conditions. The mice were weighed and dissected on Day 5, and the lung was weighed to calculate lung index and lung index inhibition. The results were statistically processed using t-test for comparison between groups.
(§1) ICR mice were taken and randomly divided by weight class: normal control group, model control group, oseltamivir control group, compound 4, compound F4, compound F5, compound 5, and compound 7 according to their weight class, and each drug was given in two dosage groups (10 mice in each group). Except for the normal control group, mice were slightly anesthetized with ether and infected with 15 LD50 H1N1 influenza virus liquid (FM1/PR8 strain) by nasal drops (30 μl per each animal). The administration was started on the day of infection at 0.2 ml/10 g by gavage each time once a day for 4 days, and the normal control and model control groups were gavaged with distilled water under the same conditions. The mice were weighed and dissected on Day 5, and lung was weighed to calculate lung index and lung index inhibition. The results were statistically processed using t-test for comparison between groups.
(§2) ICR mice were taken and randomly divided into 9 groups according to the body weight: a normal control group, model control group, oseltamivir control group, and two dosage groups of Compound 9, Compound 12 and Compound 2, 10 mice in each group. Except the normal control group, mice were slightly anesthetized with ether and infected with 15 LD50 H1N1/PR8 influenza virus liquid by nasal drops at 30 μl per mouse. The administration was started on the day of infection, at 0.2 ml/10 g each time by gavage once a day for 4 days, and the normal control and model control groups were gavaged with distilled water under the same conditions. The mice were weighed and dissected on Day 5, and lungs were weighed to calculate lung index and lung index inhibition. The results were statistically processed using t-test for comparison between groups.

[2] = test system: Influenza A (H1N1) virus PR8 strain; test: Mouse pneumonia model infected with influenza A (H1N1) virus PR8 strain (lung index); format: in vivo, ICR mice; conditions: Table 3 (Example 14)
Protocol: as §1, §2

[3] = test system: Human Coronavirus 229E (HCoV-229E); test: animal or person; format: in vivo
[4] = test system: human coronavirus OC43; format: in vivo; conditions: Table 6 (Example 17)
[5] = test system: Sendai strain of parainfluenza virus; format: in vivo
[6] = test system: SARS-CoV-2; test: Antiviral CPE assay against SARS-CoV-2 in VeroE6 cells; format: cell-based; conditions: 100 TCID50, read-out: Inhibition rate (%) of viral CPE
[7] = target: ACE2 receptor (Homo sapiens, UniProt Q9BYF1); test: ACE2-293T/CMC cell membrane chromatography binding; conditions: ACE2-293T/CMC column
Chain of ACE2 receptor (Q9BYF1 18-805): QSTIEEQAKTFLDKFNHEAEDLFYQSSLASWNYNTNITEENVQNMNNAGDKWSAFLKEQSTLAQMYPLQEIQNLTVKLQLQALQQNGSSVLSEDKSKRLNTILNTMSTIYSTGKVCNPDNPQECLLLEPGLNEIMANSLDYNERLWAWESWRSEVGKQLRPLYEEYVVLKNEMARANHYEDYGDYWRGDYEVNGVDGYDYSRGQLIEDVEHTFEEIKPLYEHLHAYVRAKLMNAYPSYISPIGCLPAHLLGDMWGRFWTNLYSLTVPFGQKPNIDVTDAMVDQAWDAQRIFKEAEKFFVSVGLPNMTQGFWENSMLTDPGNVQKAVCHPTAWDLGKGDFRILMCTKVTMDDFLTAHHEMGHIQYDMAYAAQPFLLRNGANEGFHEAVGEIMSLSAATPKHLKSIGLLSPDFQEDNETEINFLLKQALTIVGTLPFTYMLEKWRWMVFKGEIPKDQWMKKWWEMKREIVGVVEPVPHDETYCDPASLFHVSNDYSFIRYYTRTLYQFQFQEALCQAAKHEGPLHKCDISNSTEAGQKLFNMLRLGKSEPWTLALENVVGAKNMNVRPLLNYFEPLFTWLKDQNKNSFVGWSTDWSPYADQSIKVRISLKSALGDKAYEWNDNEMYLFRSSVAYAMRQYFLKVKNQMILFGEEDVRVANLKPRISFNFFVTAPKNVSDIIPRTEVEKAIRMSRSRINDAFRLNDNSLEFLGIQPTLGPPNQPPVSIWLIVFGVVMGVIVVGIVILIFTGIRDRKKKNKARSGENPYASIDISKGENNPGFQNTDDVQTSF

[8] = Acute toxicity test in mice (single gavage, 14-day observation); format: in vivo; conditions: for mortality rate of animals: 14 days observation
Protocol: Seventy ICR mice, weighing 17-21 g, were randomly divided into 7 groups according to fasting body weight: a normal control group and 6 dose groups of 475, 633, 844, 1125, 1500 and 2000 mg of the test drug (compound 4)/kg, 10 mice in each group, 50/50 male and female. After fasting for about 15 h, each dosing group was administered once by gavage in a volume of 40 ml/kg, and the control group was gavaged with an equal volume of 0.5% sodium carboxymethylcellulose solution once/day, and the animals were observed continuously for 14 days after administration of the drug to observe the death of the animals.
Thirty ICR mice, weighing 17-21 g, were randomly divided into three groups according to their fasting body weight: a normal control group and 2000 mg and 4000 mg of test drug (Compound 12)/kg dose group, 10 mice in each group, 50/50 male and female. After fasting for about 15 h, each dosing group was given the drug once by gavage in a volume of 40 ml/kg, and the control group was given an equal volume of 0.5% sodium carboxymethylcellulose solution by gavage once/day, and the deaths of the animals were observed continuously for 14 days after the administration of the drug.

[9] = 7.5 mg/kg gavage once a day for 4 days
[10] = Table 7 (Example 18), 3.75 mg/kg/d gavage for 4 days
[11] = Table 7 (Example 18), 7.5 mg/kg/d gavage for 4 days
[12] = Table 7 (Example 18), 15 mg/kg/d gavage for 4 days
[13] = Table 11 (Example 24), 7.5 mg/kg/d gavage for 4 days
[14] = Table 11 (Example 24), 15 mg/kg/d gavage for 4 days
[15] = dose groups of 1125 mg drug/kg and above

O=c1c(-c2ccccc2)coc2cc(OCCNC3CC3)ccc12 [Compound 4]
inhibition in vivo at 25 mg/kg ([1]; Influenza A virus, H1N1, po, 96 h, Table 1 (Example 13), 25 mg/kg gavage once a day for 4 days, read-out: inhibition rate (%)): 23.7%
inhibition in vivo at 50 mg/kg ([1]; Influenza A virus, H1N1, po, 96 h, Table 1 (Example 13), 50 mg/kg gavage once a day for 4 days, read-out: inhibition rate (%)): 39.3%
inhibition in vivo at 20 mg/kg ([1]; Influenza A virus, H1N1, po, 96 h, Table 2 (Example 14), 20 mg/kg gavage once a day for 4 days, read-out: inhibition rate (%)): 15.1%
inhibition in vivo at 40 mg/kg ([1]; Influenza A virus, H1N1, po, 96 h, Table 2 (Example 14), 40 mg/kg gavage once a day for 4 days, read-out: inhibition rate (%)): 54%
lung index ([1]; Table 1 (Example 13), 25 mg/kg gavage once a day for 4 days): 1.09 ± 0.13
lung index ([1]; Table 1 (Example 13), 50 mg/kg gavage once a day for 4 days): 1.01 ± 0.12
lung index ([1]; Table 2 (Example 14), 20 mg/kg gavage once a day for 4 days): 1.04 ± 0.12
lung index ([1]; Table 2 (Example 14), 40 mg/kg gavage once a day for 4 days): 0.89 ± 0.20
inhibition rate % [2, 9]: 23.91%
lung index [2, 9]: 0.98 ± 0.11
lung index ([2]; 15 mg/kg gavage once a day for 4 days): 0.83 ± 0.10
inhibition rate % ([2]; 15 mg/kg gavage once a day for 4 days, 15 mg/kg): 54.04% and 60.27%
inhibition in vivo at 40 mg/kg/day ([3]; Human coronavirus 229E, in Mus musculus, po, 96 h, Table 4 (Example 15), 40 mg/kg/d gavage for 4 days, read-out: inhibition rate (%)): 41.9%
inhibition in vivo at 50 mg/kg/day ([3]; Human coronavirus 229E, in Mus musculus, po, 96 h, Table 4 (Example 15), 50 mg/kg/d gavage for 4 days, read-out: inhibition rate (%)): 41%
inhibition in vivo at 7.5 mg/kg/day ([3]; Human coronavirus 229E, in Mus musculus, po, 96 h, Table 5 (Example 16), 7.5 mg/kg/d gavage for 4 days, read-out: inhibition rate (%)): 44.3%
inhibition in vivo at 15 mg/kg/day ([3]; Human coronavirus 229E, in Mus musculus, po, 96 h, Table 5 (Example 16), 15 mg/kg/d gavage for 4 days, read-out: inhibition rate (%)): 76.5%
inhibition in vivo at 30 mg/kg/day ([3]; Human coronavirus 229E, in Mus musculus, po, 96 h, Table 5 (Example 16), 30 mg/kg/d gavage for 4 days, read-out: inhibition rate (%)): 86.5%
inhibition in vivo at 7.5 mg/kg/day ([3]; Human coronavirus 229E, in Mus musculus, po, 96 h, Table 10 (Example 23), 7.5 mg/kg/d gavage for 4 days, read-out: inhibition rate (%)): 50%
lung index ([3]; Table 4 (Example 15), 40 mg/kg/d gavage for 4 days): 0.76 ± 0.02 g lung weight × 100/g body weight
lung index ([3]; Table 4 (Example 15), 50 mg/kg/d gavage for 4 days): 0.76 ± 0.08 g lung weight × 100/g body weight
lung index ([3]; Table 5 (Example 16), 7.5 mg/kg/d gavage for 4 days): 0.71 ± 0.11 g lung weight × 100/g body weight
lung index ([3]; Table 5 (Example 16), 15 mg/kg/d gavage for 4 days): 0.67 ± 0.08 g lung weight × 100/g body weight
lung index ([3]; Table 5 (Example 16), 30 mg/kg/d gavage for 4 days): 0.66 ± 0.05 g lung weight × 100/g body weight
lung index ([3]; Table 10 (Example 23), 7.5 mg/kg/d gavage for 4 days): 0.81 ± 0.03 g lung weight × 100/g body weight
inhibition rate % ([4]; 3.75 mg/kg/d gavage for 4 days): 33.28%
lung index ([4]; 3.75 mg/kg/d gavage for 4 days): 0.81 ± 0.08 g lung weight × 100/g body weight
inhibition rate % ([4]; 7.5 mg/kg/d gavage for 4 days): 32.42%
lung index ([4]; 7.5 mg/kg/d gavage for 4 days): 0.82 ± 0.05 g lung weight × 100/g body weight
inhibition rate % ([4]; 15 mg/kg/d gavage for 4 days): 47.43%
lung index ([4]; 15 mg/kg/d gavage for 4 days): 0.79 ± 0.10 g lung weight × 100/g body weight
inhibition rate % [5, 10]: 18.11%
lung index [5, 10]: 0.73 ± 0.07 lung weight/100 g body weight
inhibition rate % [5, 11]: 26.20%
lung index [5, 11]: 0.72 ± 0.05 lung weight/100 g body weight
inhibition rate % [5, 12]: 46.39%
lung index [5, 12]: 0.70 ± 0.05 lung weight/100 g body weight
inhibition rate % [5, 13]: 54.48%
lung index [5, 13]: 0.77 ± 0.04 Lung weight * 100/body weight
inhibition rate % [5, 14]: 45.45%
lung index [5, 14]: 0.78 ± 0.04 Lung weight * 100/body weight
inhibition at 1.95 µg/mL ([6]; Severe acute respiratory syndrome coronavirus 2, Vero C1008, drug concentration 1.95 μg/mL): 6.67 ± 2.89%
inhibition at 3.9 µg/mL ([6]; Severe acute respiratory syndrome coronavirus 2, Vero C1008, drug concentration 3.9 μg/mL): 25 ± 5%
inhibition at 7.8 µg/mL ([6]; Severe acute respiratory syndrome coronavirus 2, Vero C1008, drug concentration 7.8 μg/mL): 76.7 ± 2.89%
inhibition at 15.6 µg/mL ([6]; Severe acute respiratory syndrome coronavirus 2, Vero C1008, drug concentration 15.6 μg/mL): 90 ± 5%
Kd [7]: 1070 nM
mortality rate of animals ([8]; 475 mg/kg single gavage): 0%
mortality rate of animals ([8]; 633 mg/kg single gavage): 0%
mortality rate of animals ([8]; 844 mg/kg single gavage): 0%
mortality rate of animals ([8]; 1125 mg/kg single gavage): 20%
mortality rate of animals ([8]; 1500 mg/kg single gavage): 80%
mortality rate of animals ([8]; 2000 mg/kg single gavage): 100%
LD50 ([8]; Bliss method, single gavage, mice): 1299.054 mg of drug/kg
maximum non-adverse effect dose ([8]; both, ICR, mouse, in vivo, 14 days): 475 mg of drug/kg
peak of the deaths after the drug [8, 15]: 24 to 48 h
time of animal deaths after the drug [8, 15]: ≤ 4 days
maximum non-lethal dose ([8]; single gavage, mice): 844 mg of drug/kg
